Legend:
Assay type in all cases: physicochemical
[1] = Solubility in propoxylated pentaerythritol tetraacrylate SR 494 LM (PPTTA); settings: for Solubility in PPTTA: stirred 30 minutes at room temperature
Description: 4-phenylbenzophenone, 4-phenylbenzoyl benzoic acid ethylhexyl ester, and 4-phenylbenzoyl benzoic acid amyl ester were each separately added to the multifunctional acrylate propoxylated pentaerythritol tetraacrylate (SR 494 LM, Sartomer company) (PPTTA) in amounts of 2, 4, 6, and 8 weight % and stirred for 30 minutes at room temperature.

[2] = Solubility in di-pentaerythritol hexaacrylate (DPHA); settings: for Solubility in DPHA: stirred 30 minutes at room temperature
Description: 4-phenylbenzophenone, 4-phenylbenzoyl benzoic acid ethylhexyl ester, and 4-phenylbenzoyl benzoic acid amyl ester were each added separately to the multifunctional acrylate di-pentaerythritol hexaacrylate (DPHA, Miwon Company) in amounts of 2, 4, 6, and 8 weight %, and stirred for 30 minutes at room temperature.

[3] = Solubility stability of photoinitiator blends; settings: for Behaviour of the solution upon cooling to room temperature: 1:1 mixture with dimethylaminobenzoic acid ethylhexyl ester, dissolved at 50° C.
Description: A 1:1 mixture in weight of 4-phenylbenzoyl benzoic acid ethylhexyl ester and dimethylaminobenzoic acid ethylhexyl ester was transformed into a solution by stirring at room temperature. […] As a comparison experiment, a 1:1 mixture of 4-phenylbenzophenone and dimethylaminobenzoic acid ethylhexyl ester was turned into a solution at elevated temperature of 50° C.

[4] = UV-spectra measurement (absorption maximum, molar extinction coefficient); settings: ethyl acetate; for Molar extinction coefficient: at absorption maximum
Description: Spectra were acquired using a Unicam UV-2 UV/VIS spectrophotometer. All absorption spectra were obtained using 1 cm cuvettes, scanning within the 200-800 nm range. Solutions were prepared in a 100 cm^3 volumetric flask, and if required, subsequently diluted so that a maximum absorbance of less than 2 was obtained. From the absorption the molar extinction coefficient e was calculated in liter·mol^−1·cm^−1.

[5] = Viscosity of the neat ester; settings: at 25° C.

Row | SMILES | Solubility in PPTTA ([1]; 2 weight % in PPTTA) | Solubility in PPTTA ([1]; 4 weight % in PPTTA) | Solubility in PPTTA ([1]; 6 weight % in PPTTA) | Solubility in PPTTA ([1]; 8 weight % in PPTTA) | Solubility in DPHA ([2]; 2 weight % in DPHA) | Solubility in DPHA ([2]; 4 weight % in DPHA) | Solubility in DPHA ([2]; 6 weight % in DPHA) | Solubility in DPHA ([2]; 8 weight % in DPHA) | Behaviour of the solution upon cooling to room temperature [3] | Molar extinction coefficient [4] [liter · mol^−1 · cm · ^−1] | Absorption maximum [4] | UV-spectroscopy: λ max [4] [nm] | Solubility in PPTTA compared with 4-phenyl benzophenone [1] | Viscosity [5] [Pa·s] | Solubility in DPHA compared with 4-phenyl benzophenone [2] | State of the solution at 5° C. ([3]; 1:1 mixture in weight with dimethylaminobenzoic acid ethylhexyl ester)
1 | O=C(c1ccccc1)c1ccc(-c2ccccc2)cc1 [Example 1, 4-phenyl benzophenone, reference compound] | solution | hazy | Solid residuals | Solid residuals | solution | solution | Hazy- opaque | Solid residuals | precipitated | – | – | – | – | – | – | –
2 | CCCCC(CC)COC(=O)c1ccccc1C(=O)c1ccc(-c2ccccc2)cc1 (stereo not shown) [Example 9, 4-Phenylbenzoyl Benzoic Acid Ethyl Hexyl Ester] | solution | solution | solution | solution | solution | solution | solution | solution | – | 20100 | 287 (ethyl acetate) nm | 287 | better solubility than 4-phenyl benzophenone | 12 | better solubility than 4-phenyl benzophenone | stayed liquid
3 | CCCCC(CC)COC(=O)c1ccccc1C(=O)c1ccc(-c2ccc(-c3ccccc3)cc2)cc1 (stereo not shown) [Example 12, 4-Terphenoyl Benzoic Acid Ethylhexyl Ester] | – | – | – | – | – | – | – | – | – | 24900 | 309 (ethyl acetate) nm | 309 | – | – | – | –
4 | CCCCCOC(=O)c1ccccc1C(=O)c1ccc(-c2ccccc2)cc1 [Example 10, 4-Phenylbenzoyl Benzoic Acid Amyl Ester] | solution | solution | solution | solution | solution | solution | solution | solution | – | – | – | 286 | better solubility than 4-phenyl benzophenone | 13 | better solubility than 4-phenyl benzophenone | –
5 | COC(=O)c1ccccc1C(=O)c1ccc(-c2ccccc2)cc1 [4-phenylbenzoyl benzoic acid methyl ester] | – | – | – | – | – | – | – | – | instability and precipitation | – | – | – | – | – | – | –

Source: patent publication US9938231B2, “Liquid arylbenzoyl benzoic acid ester derivatives for energy curable compositions” (SUN CHEMICAL CORPORATION, priority 2014, dated 2018)
